Data reported in PMC10779222, “Copper(II) Complexes with 1-(Isoquinolin-3-yl)heteroalkyl-2-ones: Synthesis, Structure and Evaluation of Anticancer, Antimicrobial and Antioxidant Potential” (International Journal of Molecular Sciences, 2023).
Converted amounts (≈) assume the structure as drawn. “And” between values parts separate entries of the source, which are not always exact repeats. Identical values can stand only once.

Experiments:
A375 (melanoma) = experiment: MTT cytotoxicity assay on A375 cells; type: cell-based, human; conditions: for IC50: Homo sapiens, A-375, 24 h incubation, read-out: IC50 ± SD, A375; for IC50 ± SD, A375: 24 h incubation
Description: (§1) Cytotoxic activity of the investigated compounds was evaluated against T98G (glioblastoma), HepG2 (hepatoma), LS-180 (colon cancer) and A375 (melanoma) cell lines. Human normal skin fibroblasts, CCD-1059Sk (CRL-2072), were used as reference (non-cancerous) cells. All of the cell lines were obtained from American Type Culture Collection (ATCC; Manassas, VA, USA). A375, T98G and CCD-1059Sk cells were cultured in Dulbecco’s Modified Eagle’s Medium (DMEM) (Sigma Aldrich, St. Louis, MO, USA) supplemented with 10% FBS, penicillin (100 U/mL) and streptomycin (100 μg/mL). LS-180 and HepG2 cells were cultured in Eagle’s Minimum Essential Medium supplemented with 10% FBS, penicillin (100 U/mL) and streptomycin (100 μg/mL). All of the cells were maintained at 37 °C in a humidified atmosphere of 5% CO2. The compounds were dissolved in DMSO in order to obtain stock solutions. At the day of the experiment, the suspension of cells (1 × 10^5 cells/mL) was distributed onto 96-well plates at a volume of 100 μL/well. After attachment, the cells were treated with the increased concentrations of the tested compounds in medium containing 2% FBS and incubated for 24 h. Then, the medium was removed from wells, and cells were rinsed with PBS. Afterwards, 15 μL of MTT working solution (5 mg/mL in PBS) was added to each well, and the plates were incubated for 3 h. Subsequently, 100 μL of 10% SDS solution was added to each well in order to dissolve the precipitated formazan crystals. After overnight incubation at 37 °C, the absorbance of the obtained solution was measured at λ = 570 nm using a microplate reader (Epoch, BioTek Instruments, Inc., Winooski, VT, USA). At least two independent experiments were performed in triplicate. […] IC50 values of the investigated derivatives and positive control (etoposide) were calculated using the IC50 online calculator [101].

HepG2 (hepatoma) = experiment: MTT cytotoxicity assay on HepG2 cells; type: cell-based, human; conditions: MTT, 24 h incubation; for IC50: Homo sapiens, HepG2, read-out: IC50 ± SD, HepG2
Description: as §1

LS-180 (colon cancer) = experiment: MTT cytotoxicity assay on LS-180 cells; type: cell-based, human; conditions: for IC50: Homo sapiens, LS180, 24 h incubation, read-out: IC50 ± SD, LS180; for IC50 ± SD, LS180: 24 h incubation
Description: as §1

T98G (glioblastoma) = experiment: MTT cytotoxicity assay on T98G cells; type: cell-based; conditions: MTT, 24 h incubation; for IC50: Homo sapiens, T98G, read-out: IC50 ± SD, T98G
Description: as §1

[1] = system: CCD-1059Sk (human normal skin fibroblasts); experiment: MTT cytotoxicity assay on non-cancerous fibroblasts; type: cell-based; conditions: 24 h incubation, non-cancerous cells; for IC50: Homo sapiens, CCD-1059Sk, read-out: IC50 ± SD, CCD-1059-Sk
Description: as §1

[2] = system: A375, HepG2, LS-180, T98G and CCD-1059Sk cell lines; experiment: MTT cytotoxicity assay, summary statements over several cell lines; type: cell-based; conditions: for IC50: Homo sapiens, all cell lines (A375, HepG2, LS-180, T98G, CCD-1059-Sk)
Description: as §1

[3] = system: Candida albicans ATCC 102231; experiment: Two-fold microdilution broth method, MIC; type: cell-based; conditions: 35 °C, 24 h; for MIC: Candida albicans, ATCC102231
Text: (§2) Antibacterial and antifungal activities of the free ligands L2, L3 and L4 and the corresponding copper(II) complexes C2, C3 and C4 were screened using the two-fold microdilution broth method. Minimal inhibitory concentrations (MICs) of tested compounds for the panel of reference Gram-positive bacteria, including Staphylococcus aureus ATCC 25923, Staphylococcus aureus ATCC BAA-1707, Staphylococcus epidermidis ATCC 12228, Micrococcus luteus ATCC 10240 and Bacillus cereus ATCC 10876; Gram-negative bacteria, including Salmonella Typhimurium ATCC 14028, Escherichia coli ATCC 25922, Proteus mirabilis ATCC 12453, Klebsiella pneumoniae ATCC 13883 and Pseudomonas aeruginosa ATCC 9027; and yeasts, including Candida albicans ATCC 102231, Candida parapsilosis ATCC 22019 and Candida glabrata ATCC 90030 were determined. The procedure has been described in detail before. Briefly, the solutions of tested compounds dissolved in dimethylosulfoxide (DMSO) were suspended in Mueller–Hinton broth for bacteria or Mueller–Hinton broth with 2% glucose for fungi. Then, the series of two-fold dilutions were carried out in the sterile Nunc™ MicroWell™ 96-Well Microplates (ThermoFisher Scientific Inc.), obtaining concentrations from 1000 to 7.8 mg/L in the appropriate medium. Simultaneously, the inocula of 24 h cultures of microorganisms in sterile physiological saline (0.5 McFarland standard density) were prepared and added to each well, obtaining final density of 5 × 10^5 CFU/mL for bacteria and 5 × 10^4 CFU/mL for yeasts. Proper positive (inoculum without tested compound) and negative (compound without inoculum) controls were added in each microplate. After incubation (35 °C, 24 h), the growth of microorganisms was measured spectrophotometrically at 600 nm (BioTEK ELx808, Bio-Tek Instruments, Inc., Winooski, VT, USA). MICs were marked at the lowest concentration of the compound without the growth of bacteria or fungi.

[4] = system: Candida glabrata ATCC 90030; experiment: Two-fold microdilution broth method, MIC; type: cell-based; conditions: 35 °C, 24 h; for MIC: Nakaseomyces glabratus, ATCC90030
Text: as §2

[5] = system: Candida parapsilosis ATCC 22019; experiment: Two-fold microdilution broth method, MIC; type: cell-based; conditions: 35 °C, 24 h; for MIC: Lodderomyces parapsilosis, ATCC22019
Text: as §2

[6] = ABTS radical scavenging assay; conditions: ±SD; 10 min, 30 °C
Description: The ABTS radical scavenging assay of samples (ligands or complexes) was performed with ascorbic acid as a positive control. Briefly, 30 μL of different concentrations of the samples, dissolved in DMSO, was mixed with 170 μL of ABTS solution (2 mM ABTS diammonium salt, 3.5 mM potassium persulfate) and completed with water to a final volume of 300 μL. ABTS solution with DMSO was used as a control. […] ABTS inhibition was calculated according to the following equation:ABTS Inhibition (%) = [(Acontrol − Asample)/Acontrol] × 100% The radical scavenging activity of the samples was shown as the IC50 value (the concentration of the analyzed samples that caused a decrease in the non-reduced form of the ABTS radical by 50%).

[7] = DPPH radical scavenging assay; conditions: ±SD; 30 min, room temperature
Description: The DPPH radical scavenging assay of samples was performed with ascorbic acid as a positive control. Briefly, 100 μL of different concentrations of the complexes, dissolved in DMSO, was mixed with 100 μL of 0.06 mM DPPH methanolic solution and incubated at room temperature in the dark for 30 min. The change in absorbance at λ = 517 nm was analyzed with the use of a 96-well microplate reader (Epoch, BioTek System, Winooski, VT, USA). The control was composed of DPPH and DMSO. DPPH inhibition was calculated according to the following equation:DPPH Inhibition (%) = [(Acontrol − Asample)/Acontrol] × 100% The radical scavenging activity of the samples was shown as the IC50 value (the concentration of the analyzed samples that caused a decrease in the non-reduced form of the DPPH radical by 50%).

Candida = experiment: Two-fold microdilution broth method, MIC, yeasts (summary); type: cell-based; conditions: range over the three yeast strains; read-out: MIC, anti-Candida activity
Text: Antibacterial and antifungal activities of the free ligands L2, L3 and L4 and the corresponding copper(II) complexes C2, C3 and C4 were screened using the two-fold microdilution broth method. Minimal inhibitory concentrations (MICs) of tested compounds for the panel of reference Gram-positive bacteria, including Staphylococcus aureus ATCC 25923, Staphylococcus aureus ATCC BAA-1707, Staphylococcus epidermidis ATCC 12228, Micrococcus luteus ATCC 10240 and Bacillus cereus ATCC 10876; Gram-negative bacteria, including Salmonella Typhimurium ATCC 14028, Escherichia coli ATCC 25922, Proteus mirabilis ATCC 12453, Klebsiella pneumoniae ATCC 13883 and Pseudomonas aeruginosa ATCC 9027; and yeasts, including Candida albicans ATCC 102231, Candida parapsilosis ATCC 22019 and Candida glabrata ATCC 90030 were determined. The procedure has been described in detail before. Briefly, the solutions of tested compounds dissolved in dimethylosulfoxide (DMSO) were suspended in Mueller–Hinton broth for bacteria or Mueller–Hinton broth with 2% glucose for fungi. […] After incubation (35 °C, 24 h), the growth of microorganisms was measured spectrophotometrically at 600 nm (BioTEK ELx808, Bio-Tek Instruments, Inc., Winooski, VT, USA). […]

SMILES | IC50 (A375 (melanoma)) [µg/mL] | IC50 (HepG2 (hepatoma)) [µg/mL] | IC50 (LS-180 (colon cancer)) [µg/mL] | IC50 (T98G (glioblastoma)) [µg/mL] | IC50 [1] [µg/mL] | IC50 [2] [µg/mL] | MIC [3] [µg/mL] | MIC [4] [µg/mL] | MIC [5] [µg/mL] | IC50 ABTS [6] | IC50 DPPH [7] [µg/mL] | IC50 ± SD, A375 (A375 (melanoma)) [µg/mL] | IC50 ± SD, LS180 (LS-180 (colon cancer)) [µg/mL] | IC50 ± SD, T98G (T98G (glioblastoma)) [µg/mL] | IC50 ± SD, CCD-1059-Sk [1] [µg/mL] | also measured
O=C1NCCN1c1cc2ccccc2cn1 [L2, 1-(isoquinolin-3-yl)imidazolidin-2-one] | > 200 | > 200 | > 200 | > 200 | > 200 | > 200 | 500 (≈ 2340 µM) | > 1000 | 1000 (≈ 4690 µM) | 82.08 ± 2.77 µg/mL (≈ 385 µM) |  |  |  |  |  | melting point: 234 to 236 °C
COc1cc([C@@H]2c3cc4c(cc3[C@@H](O[C@@H]3O[C@@H]5CO[C@@H](C)O[C@H]5[C@H](O)[C@H]3O)[C@H]3COC(=O)[C@H]23)OCO4)cc(OC)c1O [Etoposide, etoposide, reference compound] | 10.2 ± 0.83 (≈ 17.3 µM) | 43.2 ± 2.75 (≈ 73.4 µM) | > 100 | > 100 | 83.5 ± 3.19 (≈ 142 µM) |  |  |  |  |  |  |  |  |  |  | 
O=C1O[C@H]([C@@H](O)CO)C(O)=C1O [Ascorbic acid, reference compound] |  |  |  |  |  |  |  |  |  | 20.15 ± 0.33 µg/mL (≈ 114 µM) | 11.65 ± 0.54 (≈ 66.1 µM) |  |  |  |  | 
CCN1CCN(c2cc3ccccc3cn2)C1=O.[Cl][Cu][Cl] [C4, Dichloro[1-ethyl-3-(isoquinolin-3-yl)imidazolidin-2-one]copper(II)] |  |  |  |  |  |  |  |  |  | 72.5 ± 0.97 µg/mL | 26.46 ± 1.04 | 37.80 ± 3.11 | 5.92 ± 0.54 | 9.27 ± 0.11 | 18.25 ± 1.37 | IC50, HepG2, LS180 and T98G ([2]; range over HepG2, LS180 and T98G): 5.92 to 9.27 µg/mL; MIC, C. albicans ATCC 102231 [3]: 500 µg/mL; MIC, C. glabrata ATCC 90030 [4]: >1000 µg/mL; MIC, C. parapsilosis ATCC 22019 [5]: >1000 µg/mL
CN1CCN(c2cc3ccccc3cn2)C1=O [L3, 1-(isoquinolin-3-yl)-3-methylimidazolidin-2-one] | > 200 | > 200 | > 200 | > 200 | > 200 | > 200 | 250 (≈ 1100 µM) | 250 (≈ 1100 µM) | 125 (≈ 550 µM) | 96.76 µg/mL and 96.67 ± 2.84 µg/mL |  |  |  |  |  | MIC (Candida): 125 to 250 µg/mL (≈ 550 to 1100 µM)
CCN1CCN(c2cc3ccccc3cn2)C1=O [L4, 1-ethyl-3-(isoquinolin-3-yl)imidazolidin-2-one] | > 200 | > 200 | > 200 | > 200 | > 200 | > 200 | 1000 (≈ 4140 µM) | 1000 (≈ 4140 µM) | > 1000 | 108.59 ± 1.51 µg/mL (≈ 450 µM) |  |  |  |  |  | melting point: 151 to 153 °C
O=C1CCN1c1cc2ccccc2cn1.O=C1CCN1c1cc2ccccc2cn1.[Cl][Cu][Cl] [C1, Dichloro{bis[1-(Isoquinolin-3-yl)azetidin-2-one]}copper(II)] |  |  |  |  |  |  |  |  |  | 112.67 ± 1.8 µg/mL | 37.45 ± 0.66 | 37.97 ± 3.01 | 11.46 ± 0.69 | 8.25 ± 0.36 | 18.83 ± 0.91 | IC50 ± SD, HepG2 (HepG2 (hepatoma)): 14.89 ± 0.56 µg/mL; IC50, HepG2 and T98G ([2]; range over HepG2 and T98G): 8.25 to 14.89 µg/mL
O=C1CCN1c1cc2ccccc2cn1 [L1, 1-(isoquinolin-3-yl)azetidin-2-one] | > 200 | > 200 | > 200 | > 200 | > 200 | > 200 |  |  |  | 183.21 ± 2.45 µg/mL (≈ 924 µM) |  |  |  |  |  | 
CN1CCN(c2cc3ccccc3cn2)C1=O.[Cl][Cu][Cl] [C3, Dichloro[1-(Isoquinolin-3-yl)-3-methylimidazolidin-2-one]copper(II)] |  |  |  |  |  |  |  |  |  | 106.19 ± 2.55 µg/mL | 380.65 ± 2.74 | 22.78 ± 1.14 | 7.09 ± 0.53 | 10.55 ± 0.74 | 25.17 ± 0.85 | IC50 ± SD, HepG2 (HepG2 (hepatoma)): 12.00 ± 0.36 µg/mL; MIC, C. albicans ATCC 102231 [3]: 1000 µg/mL; MIC, C. glabrata ATCC 90030 [4]: 1000 µg/mL; MIC, C. parapsilosis ATCC 22019 [5]: 1000 µg/mL
